Like-named read-outs stand apart in the source and are kept apart here.
Experiments:
[1] = target: CB1R (Mus musculus, UniProt P47746); assay: Radioligand saturation binding assay on brain membrane homogenates; details: read-out: Kd ± S.E.M., 30°C, 60 min
[2] = 3 mg/kg; cited from earlier work

Chain of CB1R (P47746 whole entry): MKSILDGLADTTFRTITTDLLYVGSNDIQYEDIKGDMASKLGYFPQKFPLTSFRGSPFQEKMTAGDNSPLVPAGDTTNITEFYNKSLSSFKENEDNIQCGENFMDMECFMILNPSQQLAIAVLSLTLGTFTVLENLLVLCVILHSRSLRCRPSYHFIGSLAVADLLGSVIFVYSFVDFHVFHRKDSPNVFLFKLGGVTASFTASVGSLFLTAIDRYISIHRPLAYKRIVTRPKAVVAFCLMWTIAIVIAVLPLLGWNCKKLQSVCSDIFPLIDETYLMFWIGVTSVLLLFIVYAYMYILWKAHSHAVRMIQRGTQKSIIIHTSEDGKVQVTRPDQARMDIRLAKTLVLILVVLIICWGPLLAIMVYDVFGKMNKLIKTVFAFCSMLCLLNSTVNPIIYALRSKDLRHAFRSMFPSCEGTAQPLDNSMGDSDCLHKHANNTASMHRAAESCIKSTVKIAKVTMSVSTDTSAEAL

## CCCCCCC(C)(C)c1ccc([C@@H]2C[C@H](O)CC[C@H]2CCCO)c(O)c1 [[^3H]-CP55.940]
[1]; CB1^IEC-/- mouse brain membrane homogenate
  Kd: 1.7 nM
[1]; CB1^f/f mouse brain membrane homogenate
  Kd: 1.68 nM

## Cc1c(C(=O)NN2CCCCC2)nn(-c2ccc(Cl)cc2Cl)c1-c1ccc(Cl)cc1 [rimonabant]
[2]
  Anxiogenic behaviour: induced significant anxiety

From paper PMC11927431 (eGastroenterology, 2025)
